Measurements reported in patent publication US6506730B1, “Nasal transmucosal delivery of peptide conjugated with biocompatible polymers” (priority 1999, dated 2003).
Where no end group is shown, it is not given here.

What was measured:
[1] = system: calcium concentration in plasma; experiment: Comparison of calcium reduction effect of sCT and PEG-sCT after nasal administration to rats; assay type: in vivo, SD (Sprague Dawley) male rat; conditions: Time 960 (minutes after nasal administration); rat, n = 4; plasma calcium as ratio to primary value
[2] = system: calcium concentration in plasma; experiment: as above; assay type: in vivo, SD (Sprague Dawley) male rat; conditions: rat; for plasma calcium as % of pre-dose value: n = 4, plasma calcium as ratio to primary value
Method: SD (Sprague Dawley) male rat (220-300 g, Charles River Japan, Atsugi, Japan) was put under anesthesia by administrating 45 mg/kg of peptobarbital into interperitoneal. Bronchus and esophagus were cannulated with PE-250 tube and thigh arteria with SP-45 tube. 20 ul of a placebo and experimental drugs were administered into the nasal cavity of rats with a Hamilton syringe. The placebo used physiological saline and the experimental drug used PEG5000-sCT, PEG12000-sCT, PEG2000-sCT and sCT prepared from the Example 2. Salmon calcitonin was administered at dose of 0.05 to 4.5 IU per rat, and rats were grouped into 4. 200 ul of blood was taken at before, 5, 10, 30, 60, 120, 240, 480 and […] after the placebo and the experimental drugs were administered, and immediately centrifuged to obtain 100 ul of plasma. The calcium concentration in plasma was measured using a calcium assay kit (Sigma, USA), and calcium remaining efficiency was calculated as the calcium concentration before administration was 100. The unit of the measured calcium concentration in plasma was mg/dl, and the remaining efficiency was calculated as the ratio (%) to the primary value.
After the remaining coefficient was calculated according to each time, area-under the curve (AUC) was calculated about the average value of remaining coefficient at each time per experimental group. The reduction ratio of calcium concentration was calculated by the mathematical formula 1, and the results were represented in the table 1 (FIG. 6).
? ΓD(%)=(AUCCa-plac−AUCCa-sCT)/AUCCa-plac ? ┐100
where, AUCCa-plac was AUC from placebo administration to 960 minutes, and AUCCa-sCT was AUC from calcitonin and experimental drugs administration to 960 minutes.

[3] = pH 5.5 to 6.0; cited from earlier work
[4] = oral administration; cited from earlier work
[5] = nasal transmucosal administration

| Substance | plasma calcium as % of pre-dose value [1] [%] | plasma calcium as % of pre-dose value ([2]; Time 0 (before administration = 100), nasal cavity) [%] | plasma calcium as % of pre-dose value ([2]; Time 5 (minutes after nasal administration)) [%] | plasma calcium as % of pre-dose value ([2]; Time 10 (minutes after nasal administration)) [%] | plasma calcium as % of pre-dose value ([2]; Time 30 (minutes after nasal administration)) [%] | plasma calcium as % of pre-dose value ([2]; Time 60 (minutes after nasal administration)) [%] | plasma calcium as % of pre-dose value ([2]; Time 120 (minutes after nasal administration)) [%] | plasma calcium as % of pre-dose value ([2]; Time 240 (minutes after nasal administration)) [%] | plasma calcium as % of pre-dose value ([2]; Time 480 (minutes after nasal administration)) [%] | time after which calcium concentration restored at the original concentration [2, 5] [h] | time for which the calcium concentration was decreased / reduction effect represented after the nasal transmucosal administration [2, 5] [h] | stability in acetate buffer [3] | absorption half life [4] [min] | bioavailability [4] [%] | elimination half life [4] [min] |
| --- | --- | --- | --- | --- | --- | --- | --- | --- | --- | --- | --- | --- | --- | --- | --- |
| salmon calcitonin [sCT] | 101 | 100 | 98.9 | 93.7 | 95 | 98.7 | 97.8 | 100.3 | 101.6 | 2 | 1 |  |  |  |  |
| His-Asp-Tyr-Ala-Tyr-Asp-Lys-NH2 (HDYAYDK-NH2) [GHRP-6] |  |  |  |  |  |  |  |  |  |  |  | very stable | 15 | 0.3 | 60 |
